Each molecule was assayed against IDH1 (R132H) (Homo sapiens (Human), UniProt O75874, R132H) (assay: Enzyme assay, NADPH decrease detected with Diaphorase/Resazurin). Settings: 40 nM enzyme, 20 μM NADPH, incubated at 23° C. for 16 hours before α-KG; 12 concentrations.
Format: biochemical
Description: Resazurin is a traditional redox dye, and after a redox reaction, it can be reduced from a blue resazurin without fluorescence to a pink fluorescent substance, resorufin, which can be measured and quantified with relative fluorescence unit (RFU) of fluorophotometer (Ex=530-570 nm, Em=590-620 nm). At present, resazurin is widely used for determining the viability of bacteria, cells, etc. and the enzyme activity detection of oxidoreductase. We detected the decrease of cofactor NADPH to determine the inhibitory activity of a compound against IDHm and detected the generation of cofactor NADPH to determine the inhibitory activity of a compound against IDH WT.
The compound was pre-incubated with IDHm and NADPH, and then the reaction was initiated by adding α-KG and performed for certain time under a linear condition.
Then, Diaphorase (lipoamide dehydrogenase) and the corresponding substrate Resazurin were added thereto for detection. Lipoamide dehydrogenase terminated the IDH2m reaction by decreasing the available cofactor NADPH, which oxidized NADPH to NADP, and reduced resazurin to high fluorescent resorufin. The amount of the remaining cofactor NADPH after a specific reaction time was quantified via an easily detectable fluorophore.
The specific operation was as follows: 2.5 μl of the compound diluted in a 3-fold gradient was added to a 384-well plate, followed by adding 5 μL of the reaction buffer (20 mM Tris-HCl, pH 7.5; 150 mM NaCl; 10 mM MgCl2; 0.4 mg/mL BSA (Bovine Serum Albumin) and 2 mM DTT (dithiothreitol)) containing 40 nM IDH1 (R132H/R132C) and 20 μM NADPH. Then, the above test mixture was incubated at 23° C. for 16 hours, and then 2.5 μL of the reaction buffer containing 4 mM α-KG was added to initiate the reaction. After they were incubated for 60 minutes at room temperature, 5 μL of the termination mixture (0.4 U/ml Diaphorase and 20 μM Resazurin) formulated with the reaction buffer was added to convert resazurin to resorufin, so as to measure the amount of the remaining NADPH. After incubating at 23° C. for 10 minutes, fluorescence values were determined through Flexstation 3 at Ex535/Em595. The enzyme activity of each compound was respectively determined at 12 concentrations, and the data were calculated using the software GraFit6.0 (Erithacus Software) to obtain the IC50 value of each compound.

Chain of IDH1 (R132H) (O75874 whole entry R132H): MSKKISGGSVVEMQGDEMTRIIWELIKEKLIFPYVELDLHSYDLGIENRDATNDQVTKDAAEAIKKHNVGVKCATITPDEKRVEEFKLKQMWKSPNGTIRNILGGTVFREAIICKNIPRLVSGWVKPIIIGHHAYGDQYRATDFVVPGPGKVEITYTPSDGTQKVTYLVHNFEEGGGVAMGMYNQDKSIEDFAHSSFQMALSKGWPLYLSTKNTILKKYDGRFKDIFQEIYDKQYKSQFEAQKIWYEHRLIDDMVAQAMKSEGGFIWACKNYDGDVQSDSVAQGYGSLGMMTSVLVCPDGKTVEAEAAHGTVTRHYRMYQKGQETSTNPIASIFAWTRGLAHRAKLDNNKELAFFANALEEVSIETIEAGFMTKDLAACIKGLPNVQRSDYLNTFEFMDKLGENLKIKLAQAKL

Compound	IC50
CC(C)[C@@H]1CN1S(=O)(=O)NCC(=O)N(c1cccc(F)c1)C(C(=O)NC1CCCCC1)c1ccccc1Cl (stereo in doubt) [Example 9, 2-(2-chlorophenyl)-N-cyclohexyl-2-(N-(3-fluorophenyl)-2-((R)-2-isopropylaziridine-1-sulfonylamino)acetamido)acetamide]	< 100 nM
O=C(NC1CCCCC1)C(c1ccccc1Cl)N(C(=O)CCNS(=O)(=O)N1CC1)c1cccc(F)c1 (centres unmarked) [Example 5, 3-(aziridine-1-sulfonylamino)-N-(1-(2-chlorophenyl)-2-(cyclohexylamino)-2-oxoethyl)-N-(3-fluorophenyl)propanamide]	< 20 nM
CC(C)[C@@H]1CN1S(=O)(=O)N(CC(=O)N(c1cccc(F)c1)C(C(=O)NC1CCCCC1)c1ccccc1Cl)C(=O)OC(C)(C)C (some centres unmarked) [Example 7]	< 10000 nM
O=C(NC1CC(F)(F)C1)C(c1ccccc1Cl)N(C(=O)CCNS(=O)(=O)N1CC1)c1cccc(F)c1 (centres unmarked) [Example 8, 3-(aziridine-1-sulfonylamino)-N-(1-(2-chlorophenyl)-2-((3,3-difluorocyclobutyl)amino)-2-oxoethyl)-N-(3-fluorophenyl)propanamide]	< 20 nM
O=C(NC1CC(F)(F)C1)C(c1ccccc1Cl)N(C(=O)CNS(=O)(=O)N1CC1)c1cncc(F)c1 (centres unmarked) [Example 11, 2-(aziridine-1-sulfonylamino)-N-(1-(2-chlorophenyl)-2-((3,3-difluorocyclobutyl)amino)-2-oxoethyl)-N-(5-fluoropyridin-3-yl)acetamide]	< 100 nM
O=C(NC1CC(F)(F)C1)C(c1ccccc1Cl)N(C(=O)CCCNS(=O)(=O)N1CC1)c1cccc(F)c1 (centres unmarked) [Example 13, 4-(aziridine-1-sulfonylamino)-N-(1-(2-chlorophenyl)-2-((3,3-difluorocyclobutyl)amino)-2-oxoethyl)-N-(3-fluorophenyl)butanamide]	< 20 nM
O=C(NC1CC(F)(F)C1)C(c1ccccc1Cl)N(C(=O)CCS(=O)(=O)N1CC1)c1cccc(F)c1 (centres unmarked) [Example 14, 3-(aziridin-1-ylsulfonyl)-N-(1-(2-chlorophenyl)-2-((3,3-difluorocyclobutyl)amino)-2-oxoethyl)-N-(3-fluorophenyl)propanamide]	< 20 nM
O=C(NC1CCCCC1)C(c1ccccc1Cl)N(C(=O)CNS(=O)(=O)N1CC1)c1cc(F)cc(F)c1 (centres unmarked) [Example 16, 2-(aziridine-1-sulfonylamino)-N-(1-(2-chlorophenyl)-2-(cyclohexylamino)-2-oxoethyl)-N-(3,5-difluorophenyl)acetamide]	< 20 nM
O=C(NC1CCCCC1)C(c1ccccc1Cl)N(C(=O)CNS(=O)(=O)N1CC1)c1cncc(F)c1 (centres unmarked) [Example 17, 2-(aziridine-1-sulfonylamino)-N-(1-(2-chlorophenyl)-2-(cyclohexylamino)-2-oxoethyl)-N-(5-fluoropyridin-3-yl)acetamide]	< 20 nM
O=C(NC1CCCCC1)C(c1ccccc1Cl)N(C(=O)CCCCS(=O)(=O)N1CC1)c1cccc(F)c1 (centres unmarked) [Example 20, 5-(aziridin-1-ylsulfonyl)-N-(1-(2-chlorophenyl)-2-(cyclohexylamino)-2-oxoethyl)-N-(3-fluorophenyl)pentanamide]	< 20 nM
O=C(NC1CCCCC1)C(c1ccccc1Cl)N(C(=O)CCCS(=O)(=O)N1CC1)c1cccc(F)c1 (centres unmarked) [Example 21, 4-(aziridin-1-ylsulfonyl)-N-(1-(2-chlorophenyl)-2-(cyclohexylamino)-2-oxoethyl)-N-(3-fluorophenyl)butanamide]	< 20 nM
O=C(NC1CC(F)(F)C1)C(c1ccccc1Cl)N(C(=O)CNS(=O)(=O)N1CC1)c1cccc(C(F)(F)F)c1 (centres unmarked) [Example 23, 2-(aziridine-1-sulfonylamino)-N-(1-(2-chlorophenyl)-2-((3,3-difluorocyclobutyl)amino)-2-oxoethyl)-N-(3-trifluoromethylphenyl)acetamide]	< 100 nM
O=C(NC1CC(F)(F)C1)[C@@H](c1ccccc1Cl)N(C(=O)CNS(=O)(=O)N1CC1)c1cccc(F)c1 [Example 26, (R)-2-(aziridine-1-sulfonylamino)-N-(1-(2-chlorophenyl)-2-((3,3-difluorocyclobutyl)amino)-2-oxoethyl)-N-(3-fluorophenyl)acetamide]	< 100 nM
NS(=O)(=O)c1cccc(N(C(=O)CNS(=O)(=O)N2CC2)C(C(=O)NC2CC(F)(F)C2)c2ccccc2Cl)c1 (centres unmarked) [Example 28, 2-(aziridine-1-sulfonylamino)-N-(1-(2-chlorophenyl)-2-((3,3-difluorocyclobutyl)amino)-2-oxoethyl)-N-(3-aminosulfonylphenyl)acetamide]	< 100 nM

The next lines start with the values.

IC50	Compound
< 20 nM	O=C(NC1CCCCC1)C(c1ccccc1Cl)N(C(=O)CNS(=O)(=O)N1CC1)c1cccc(F)c1 (centres unmarked) [Example 1, 2-(aziridinyl-1-sulfonylamino)-N-(1-(2-chlorophenyl)-2-(cyclohexylamino)-2-oxoethyl)-N-(3-fluorophenyl)acetamide]
< 500 nM	C[C@H](NS(=O)(=O)N1CC1)C(=O)N(c1cccc(F)c1)C(C(=O)NC1CCCCC1)c1ccccc1Cl (some centres unmarked) [Example 2, (2)-2-(aziridine-1-sulfonylamino)-N-(1-(2-chlorophenyl)-2-(cyclohexylamino)-2-oxoethyl)-N-(3-fluorophenyl)propanamide]
< 10000 nM	C[C@@H](NS(=O)(=O)N1CC1)C(=O)N(c1cccc(F)c1)[C@@H](C(=O)NC1CCCCC1)c1ccccc1Cl [Example 3, (R)-2-(aziridine-1-sulfonylamino)-N—((R)-(2-chlorophenyl)-2-(cyclohexylamino)-2-oxoethyl)-N-(3-fluorophenyl)propanamide]
< 100 nM	C[C@@H](NS(=O)(=O)N1CC1)C(=O)N(c1cccc(F)c1)[C@H](C(=O)NC1CCCCC1)c1ccccc1Cl [Example 4, (R)-2-(aziridine-1-sulfonylamino)-N—((S)-1-(2-chlorophenyl)-2-(cyclohexylamino)-2-oxoethyl)-N-(3-fluorophenyl)propanamide]
< 20 nM	O=C(NC1CCCCC1)C(c1ccccc1Cl)N(C(=O)CCS(=O)(=O)N1CC1)c1cccc(F)c1 (centres unmarked) [Example 6, 3-(aziridin-1-ylsulfonyl)-N-(1-(2-chlorophenyl)-2-(cyclohexylamino)-2-oxoethyl)-N-(3-fluorophenyl)propanamide]
< 20 nM	CN(CC(=O)N(c1cccc(F)c1)C(C(=O)NC1CCCCC1)c1ccccc1Cl)S(=O)(=O)N1CC1 (centres unmarked) [Example 12, 2-(2-chlorophenyl)-N-cyclohexyl-2-(N-(3-fluorophenyl)-2-(N-methylaziridine-1-sulfonylamino)acetamido)acetamide]
< 20 nM	O=C(NC1CCCCC1)C(c1ccccc1Cl)N(C(=O)CS(=O)(=O)N1CC1)c1cccc(F)c1 (centres unmarked) [Example 15, 2-(aziridin-1-ylsulfonyl)-N-(1-(2-chlorophenyl)-2-(cyclohexylamino)-2-oxoethyl)-N-(3-fluorophenyl)acetamide]
< 10000 nM	O=C(NC1CCCCC1)[C@@H](c1ccccc1Cl)N(C(=O)[C@@H]1CCCN1S(=O)(=O)N1CC1)c1cccc(F)c1 [Example 18, (S)-1-(aziridin-1-ylsulfonyl)-N—((R)-1-(2-chlorophenyl)-2-(cyclohexylamino)-2-oxoethyl)-N-(3-fluorophenyl)pyrrolidine-2-carboxamide]
< 100 nM	O=C(NC1CCCCC1)[C@H](c1ccccc1Cl)N(C(=O)[C@@H]1CCCN1S(=O)(=O)N1CC1)c1cccc(F)c1 [Example 19, (S)-1-(aziridin-1-ylsulfonyl)-N—((S)-1-(2-chlorophenyl)-2-(cyclohexylamino)-2-oxoethyl)-N-(3-fluorophenyl)pyrrolidine-2-carboxamide]
< 20 nM	O=C(NC1CCCCC1)C(c1ccccc1Cl)N(C(=O)C1CC(NS(=O)(=O)N2CC2)C1)c1cccc(F)c1 (centres unmarked) [Example 22, 3-(aziridine-1-sulfonylamino)-N-(1-(2-chlorophenyl)-2-cyclohexylamino-2-oxoethyl)-N-(3-fluorophenyl)cyclobutyl carboxamide]
< 20 nM	O=C(NC1CCCCC1)C(c1ccccc1Cl)N(C(=O)C1CN(S(=O)(=O)N2CC2)C1)c1cccc(F)c1 (centres unmarked) [Example 24, 1-(aziridin-1-ylsulfonyl)-N-(1-(2-chlorophenyl)-2-cyclohexylamino-2-oxoethyl)-N-(3-fluorophenyl)azetidine-3-carboxamide]
< 20 nM	O=C(NC1CCCCC1)C(c1ccccc1Cl)N(C(=O)C1CCN(S(=O)(=O)N2CC2)C1)c1cccc(F)c1 (centres unmarked) [Example 27, 1-(aziridin-1-ylsulfonyl)-N-(1-(2-chlorophenyl)-2-cyclohexylamino-2-oxoethyl)-N-(3-fluorophenyl)pyrrolidine-3-carboxamide]

— US11203586B2, “Iridinesulfonamide compound and use method thereof” (Chia Tai Tianqing Pharmaceutical Group Co., Ltd., priority 2016, dated 2021)
